The term melting point denotes the temperature, or range, at which the solid turns liquid. Regarding `O=C(O)Cc1ccc(S(=O)(=O)CCO)cc1`, the melting point fell in the range of 99 to 101 °C. Then `Cc1cc(Cl)cc2nc(Cl)oc12`, with 59 to 61 °C. As to `OCCOc1ccc(Br)cc1`, the melting point was in the range of 53 to 55 °C. In turn, `Cc1nc(O)nc(O)c1N` came in with a melting point of 259 to 261 °C.

With `O=S(=O)(Nc1nc2ccccc2nc1Cl)c1ccccc1`, the melting point lay within 172 to 174 °C.

`C=CCC(NC(C)=O)C(=O)O` (configuration not stated): the melting point lay in the range of 114 to 116 °C. Then `CC(=O)Cn1c(=O)oc(=O)c2ccccc21`, with 151 to 153 °C. As to `CN(C)c1ccc(C(=O)O)cn1`, the melting point is 225 to 227 °C. In the case of `Cc1c(C(C)N)cnn1-c1ccc(F)cc1` (configuration not stated) it was 42 to 44 °C. Then `CCS(=O)(=O)Nc1cc(Br)ccc1OC`, with 105 to 107 °C; and `NS(=O)(=O)c1ccc(CC(=O)O)cc1`, with 169 to 171 °C. Then `N#Cc1cnn(-c2ccncc2)c1N`, with 273 to 275 °C; and `Clc1nc(CN2CCCCC2)nc2sc3c(c12)CCCC3`, with 51 to 53 °C. In the case of `O=C(O)C=Cc1cc[nH]c1`, the melting point was in the range of 183 to 185 °C. As to `OCCOc1ccccc1O`, the melting point fell in the range of 99 to 100 °C. For the molecule `Cc1ccc(C(N)=S)c(C)c1`, the melting point lay within 59 to 63 °C.

`Cc1ccc(S(=O)(=O)N2CCOCC2)cc1N` displayed a melting point of 127 to 135 °C. Take `O=C(O)CNC(=O)/C=C/c1ccccc1`: the melting point lay in the range of 191 to 193 °C. Regarding `COc1ccc(S(=O)(=O)NCC(=O)O)cc1`, the melting point is 131 to 133 °C. Turning to `NC(=NO)C(c1ccccc1)c1ccccc1`, the melting point was in the range of 124 to 126 °C.

`Nn1c(S)nnc1C1CCCCO1` (configuration not stated) registered a melting point of 162 to 164 °C. In the case of `CN(CC(=O)O)C(N)=O` it was 141 to 143 °C.

The molecule `CN(C)CCOc1cc(N)ccn1` displayed a melting point of 87 to 89 °C. Then `CC(C)c1cnc(S)n1C`, with 124 to 126 °C; and `CN(C)C(=O)c1cccc([N+](=O)[O-])c1`, with 79 to 81 °C; and `O=C(CCl)NCCc1c[nH]c2ccccc12`, with 82 to 84 °C. Then `Cc1cc(Oc2ncccc2C#N)ccc1N`, with 158 to 160 °C; and `Cc1c(NC(=O)C(C)Cl)cccc1[N+](=O)[O-]` (configuration not stated), with 120 to 122 °C; and `Cc1cc(C(=O)CCl)c(C)n1CCc1ccccc1`, with 80 to 82 °C. In the case of `O=C1CC2(CCCC2)C(=O)O1` it was 33 to 35 °C; in that of `COC(=O)c1ccc(F)cc1N`, 62 to 64 °C. In turn, `OC1CCCCc2ccccc21` (configuration not stated) showed a melting point of 101 to 103 °C. In the case of `COCCNc1ccc(C#N)cc1` it was 66 to 68 °C; in that of `CC(C)Oc1ccc(S(=O)(=O)N2CCCCC2)cc1NC(=O)CCl`, 270 to 272 °C. In the case of `CCOc1ccc(NS(=O)(=O)c2ccc(C)c(C(=O)O)c2)cc1` it was 231 to 233 °C; in that of `O=C(O)c1cc2c(c(S(=O)(=O)Cl)c1)CCCC2`, 193 to 195 °C. Then `Nc1cccc(CNC(=O)Nc2ccccc2Cl)c1`, with 177 to 179 °C.

As to `Cc1c(NC(=O)CSCC(=O)O)c(=O)n(-c2ccccc2)n1C`, the melting point was in the range of 180 to 182 °C. In the case of `CNC1CCC(NC(=O)OC(C)(C)C)CC1` (configuration not stated) it was 72 to 74 °C; in that of `O=C(O)/C=C/c1cc(C(F)(F)F)ccc1Cl`, 147 to 149 °C. In the case of `CCN(CC)S(=O)(=O)c1ccc(-c2csc(N)n2)cc1` it was 234 to 236 °C; in that of `COc1ccc(Nc2nc(C(=O)O)cs2)cc1`, 239 to 241 °C. In the case of `CN(C)S(=O)(=O)c1ccc2c(c1)CCN2` it was 111 to 113 °C. For the molecule `Nc1ccc(N2CCCC2)nc1`, the melting point lay in the range of 83 to 85 °C.

In turn, `OCc1cn(-c2ccccc2)nc1-c1cccs1` had a melting point of 115 to 117 °C. Then `O=C(O)C1CSC2(c3ccccc3)CCC(=O)N12` (configuration not stated), with 173 to 175 °C.

Regarding `Cc1ccc(C)n1-c1ccc(Br)cc1`, the melting point lay in the range of 61 to 63 °C. In the case of `Cc1cc([N+](=O)[O-])ccc1OCCO` it was 93 to 95 °C. In the case of `Nc1ccc(Cl)c(C(=O)NCc2cccs2)c1` it was 69 to 71 °C; in that of `O=C1CNc2ccccc2N1`, 119 to 121 °C; in that of `COc1ccc(C(=O)O)cc1OCc1ccccn1`, 219 to 221 °C. In the case of `N#Cc1cccnc1Oc1ccccc1N` it was 171 to 173 °C; in that of `CC1(c2ccc(O)cc2)NC(=O)NC1=O` (configuration not stated), 240 to 242 °C; in that of `O=C(O)c1ccccc1SCc1ccsc1`, 213 to 215 °C. With `Nc1ccc(C(=O)NCc2ccccc2)cc1`, the melting point was in the range of 113 to 115 °C. Then `COc1c(Br)cc(Cl)cc1S(=O)(=O)Cl`, with 68 to 70 °C. Then `NC(=O)C(Cl)c1cccc(Br)c1` (configuration not stated), with 109 to 111 °C.

Take `ClCc1coc(-c2cccs2)n1`: the melting point is 45 to 57 °C. Then `O=C(O)c1cc(-c2ccccc2F)on1`, with 182 to 184 °C. Then `Cn1c(S)nnc1Cc1cccs1`, with 157 to 161 °C.

`CC(Cc1nnc(S)o1)c1ccccc1` (configuration not stated) displayed a melting point of 102 to 104 °C.

The molecule `Cn1nc(-c2ccccc2)nc1CC#N` displayed a melting point of 116 to 118 °C.

`CC1(C)NC(=O)N(Cc2ccc(C#N)cc2)C1=O`: the melting point lay within 167 to 169 °C.

Molecule `CCN(CC)C(=O)c1cccc(N)c1` returned a melting point of 81 to 83 °C.

Consider `O=C(c1cccc([N+](=O)[O-])c1)N1CCNCC1`, for which the melting point is 145 to 147 °C.

`Sc1nc2ccccc2nc1S`: the melting point was 345 to 347 °C. For `Nc1ccc(S(=O)(=O)NCC2CC2)cc1`, the melting point was in the range of 109 to 111 °C. Then `CC1(c2ccc(C#N)cc2)NC(=O)NC1=O` (configuration not stated), with 209 to 211 °C; and `O=C(O)c1nc2[nH]c(-c3ccccc3)cc(=O)n2n1`, with 282 to 284 °C.

`O=C(O)c1csc(Nc2ccccn2)n1` yielded a melting point of 298 to 300 °C. `Nc1ccc2nc[nH]c(=O)c2c1` had a melting point of 309 to 311 °C.

Turning to `Nc1cc(C2CCC2)no1`, the melting point lay in the range of 77 to 79 °C. Then `O=C(CCl)NCC1(c2ccccc2)CCC1`, with 95 to 97 °C. `CC(C)(C)OC(=O)N1CCC(COS(C)(=O)=O)CC1`: the melting point lay in the range of 84 to 86 °C. In the case of `Nc1ccc([N+](=O)[O-])cc1Br` it was 99 to 101 °C; in that of `Cc1nnc(NCCC(C)C)c2ccccc12`, 129 to 131 °C.

For `OC1(Cc2ccc(F)cc2F)CC2CCC(C1)N2` (configuration not stated), the melting point lay in the range of 142 to 144 °C. `CC(=O)c1sc2nc(CCl)[nH]c(=O)c2c1C`: the melting point was in the range of 247 to 249 °C. Then `NNc1c(F)cc(C(=O)NC2CC2)cc1F`, with 204 to 206 °C; and `CCCCNS(=O)(=O)c1ccc(N)c(N)c1`, with 48 to 52 °C. `O=S(=O)(Cl)c1ccccc1-c1ccccc1`: the melting point was in the range of 94 to 96 °C. Then `Cc1ncsc1NC(=O)OC(C)(C)C`, with 136 to 138 °C.

In turn, `CCCC(=O)Nc1nc2ccc(N)cc2s1` gave a melting point of 182 to 184 °C. Then `CC(C)C(=O)Nc1ccc(O)cc1`, with 158 to 160 °C; and `Cc1ccc(C(=O)O)cc1NC(=O)Nc1ccccc1`, with 309 to 311 °C.

For `Cn1c(N)c(C(=O)CC#N)c(=O)n(C)c1=O`, the melting point is 260 to 262 °C.

Turning to `O=C(O)c1noc2c1CCCC2`, the melting point lay in the range of 124 to 126 °C. Then `O=C(O)C(Cc1ccccc1)Cc1ccc(Cl)cc1` (configuration not stated), with 79 to 81 °C; and `COc1ccc(CCC2CCCCN2)cc1OC` (configuration not stated), with 39 to 41 °C; and `Cn1nccc1C1CCNCC1`, with 66 to 68 °C.

As to `CCc1ccc(C(=O)O)o1`, the melting point was 89 to 91 °C.

With `CCn1c(=O)c(C(=O)CCl)c(N)n(Cc2ccccc2)c1=O`, the melting point was in the range of 115 to 117 °C. Then `CN(CCO)CCC(=O)O`, with 89 to 91 °C. Then `COc1ccc(NCCC(=O)O)cc1`, with 82 to 84 °C; and `NNC(=O)c1cc(-c2ccco2)nc2ccccc12`, with 219 to 221 °C. Then `O=C(O)c1cc(S(=O)(=O)NCCN2CCCC2)ccc1Cl`, with 279 to 281 °C; and `CC(=O)Nc1cccc(F)c1C(=O)O`, with 202 to 204 °C. In the case of `COc1ccc(-c2nnc(S)o2)cc1`, the melting point is 202 to 204 °C. Then `O=C(O)CCc1cscn1`, with 156 to 158 °C; and `CC(=O)c1cc(Cl)cc(CN2CCN(C(C)=O)CC2)c1O`, with 136 to 138 °C. Molecule `O=C(CCCl)Nc1ccc(Br)cc1` yielded a melting point of 126 to 128 °C. In the case of `ClCc1nc2cc(Cl)ccc2s1` it was 99 to 101 °C; in that of `Cc1nc(Cc2nnc(S)o2)cs1`, 194 to 196 °C.

Turning to `CS(=O)(=O)NCCc1ccc(C(=O)CCl)s1`, the melting point fell in the range of 110 to 112 °C. On to `O=C(O)c1occc1CS(=O)(=O)c1ccc(Br)cc1`, for which the melting point is 211 to 213 °C. In the case of `CC(C)C(Br)C(=O)N1CCCCC1` (configuration not stated) it was 61 to 63 °C; in that of `NS(=O)(=O)CCCC(=O)O`, 108 to 111 °C. In the case of `O=C(NC1CC1)C(Cl)c1ccc(F)cc1` (configuration not stated) it was 135 to 137 °C; in that of `CCc1c(O)nc(S)n(-c2ccccc2C)c1=O`, 178 to 180 °C; in that of `Nc1c(C(=O)O)nnc2ccccc12`, 257 to 259 °C. In the case of `CN(C)C(C)(C(=O)O)c1ccc(F)cc1` (configuration not stated) it was 234 to 236 °C; in that of `CCCN1CCCC(C(=O)O)C1` (configuration not stated), 137 to 139 °C; in that of `FC(F)(F)CNC(=S)N1CCOCC1`, 103 to 105 °C. As to `Cc1c(C(=O)O)nnn1-c1ccc2ncccc2c1`, the melting point was 219 to 221 °C.

In turn, `N#Cc1cnc2ccccc2c1N` displayed a melting point of 274 to 276 °C.

Consider `O=C(O)CCc1ccc(-c2ccccc2)[nH]1`, for which the melting point lay in the range of 197 to 199 °C. In the case of `Nc1cc2c(cc1N)OCC(=O)N2` it was 252 to 254 °C; in that of `COc1cc(N)cc(Br)c1`, 39 to 41 °C. In the case of `CCN(c1ccccc1)S(=O)(=O)c1ccc(Cl)c([N+](=O)[O-])c1` it was 122 to 124 °C; in that of `Sc1nnc(NC2CCCCC2)s1`, 144 to 146 °C. Regarding `CCC(CC(=O)O)c1ccccc1` (configuration not stated), the melting point was 59 to 61 °C. Then `CCCCc1ccc(Nc2nnc(S)s2)cc1`, with 124 to 126 °C.
